# Measured values as given in PubChem BioAssay (NCI).
#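 In this assay, cells in 96-well plates receive the compound at five concentrations for 48 hours. Endpoints are linearly interpolated between the surrounding concentrations. Abbreviation: GI50, concentration required for 50% inhibition of growth. TGI is the concentration that stops growth completely.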
# Tests used:
# Experiment in all cases: NCI anticancer screen, dose series, 48 h
# SK-MEL-28 melanoma = system: SK-MEL-28 melanoma
# CAKI-1 renal = system: CAKI-1 renal
# RPMI-8226 leukemia = system: RPMI-8226 leukemia
# SN12C renal = system: SN12C renal
# NCI-H522 lung = system: NCI-H522 lung
# NCI/ADR-RES ovarian = system: NCI/ADR-RES ovarian
# SK-OV-3 ovarian = system: SK-OV-3 ovarian
# UO-31 renal = system: UO-31 renal
# HOP-92 NSCLC = system: HOP-92 NSCLC
# DU-145 prostate = system: DU-145 prostate
# LOX IMVI melanoma = system: LOX IMVI melanoma
# SF-295 CNS = system: SF-295 CNS
# 786-0 renal = system: 786-0 renal
# CCRF-CEM leukemia = system: CCRF-CEM leukemia
# SK-MEL-2 melanoma = system: SK-MEL-2 melanoma
# SF-539 CNS = system: SF-539 CNS
# NCI-H226 lung = system: NCI-H226 lung
# KM12 colon = system: KM12 colon
# HCT-116 colon = system: HCT-116 colon
# PC-3 prostate = system: PC-3 prostate
# K-562 leukemia = system: K-562 leukemia
# UACC-62 melanoma = system: UACC-62 melanoma
# BT-549 breast = system: BT-549 breast
# HT29 colon = system: HT29 colon
# SNB-19 CNS = system: SNB-19 CNS
# MDA-MB-231 breast = system: MDA-MB-231 breast
# NCI-H460 lung = system: NCI-H460 lung
# IGROV1 ovarian = system: IGROV1 ovarian
# HL-60(TB) leukemia = system: HL-60(TB) leukemia
structure (smiles),measurement,setting,value
CCCCC(CCCCCC(CCCC)C1NC(C)Cc2cc(OC)c(OC)cc21)C1NC(C)Cc2cc(OC)c(OC)cc21 (configuration not stated),GI50,SK-MEL-28 melanoma,1600 nM
same,TGI,SK-MEL-28 melanoma,2950 nM
same,GI50,CAKI-1 renal,1720 nM
same,TGI,CAKI-1 renal,3710 nM
same,GI50,RPMI-8226 leukemia,1990 nM
same,TGI,RPMI-8226 leukemia,4430 nM
same,GI50,SN12C renal,1630 nM
same,TGI,SN12C renal,3040 nM
same,GI50,NCI-H522 lung,1700 nM
same,TGI,NCI-H522 lung,3250 nM
same,GI50,NCI/ADR-RES ovarian,1610 nM
same,TGI,NCI/ADR-RES ovarian,3070 nM
same,GI50,SK-OV-3 ovarian,1570 nM
same,TGI,SK-OV-3 ovarian,2910 nM
same,GI50,UO-31 renal,1670 nM
same,TGI,UO-31 renal,3730 nM
same,GI50,HOP-92 NSCLC,1060 nM
same,TGI,HOP-92 NSCLC,2580 nM
same,GI50,DU-145 prostate,1800 nM
same,TGI,DU-145 prostate,3230 nM
same,GI50,LOX IMVI melanoma,1320 nM
same,TGI,LOX IMVI melanoma,2680 nM
same,GI50,SF-295 CNS,1830 nM
same,TGI,SF-295 CNS,3790 nM
same,GI50,786-0 renal,1690 nM
same,TGI,786-0 renal,3150 nM
same,GI50,CCRF-CEM leukemia,2150 nM
same,TGI,CCRF-CEM leukemia,4660 nM
same,GI50,SK-MEL-2 melanoma,2250 nM
same,TGI,SK-MEL-2 melanoma,3880 nM
same,GI50,SF-539 CNS,1760 nM
same,TGI,SF-539 CNS,3210 nM
same,GI50,NCI-H226 lung,1530 nM
same,TGI,NCI-H226 lung,3010 nM
same,GI50,KM12 colon,1570 nM
same,TGI,KM12 colon,3060 nM
same,GI50,HCT-116 colon,1490 nM
same,TGI,HCT-116 colon,2960 nM
same,GI50,PC-3 prostate,1770 nM
same,TGI,PC-3 prostate,3510 nM
same,GI50,K-562 leukemia,328 nM
same,TGI,K-562 leukemia,1180 nM
same,GI50,UACC-62 melanoma,1670 nM
same,TGI,UACC-62 melanoma,3050 nM
same,GI50,BT-549 breast,1790 nM
same,TGI,BT-549 breast,3260 nM
same,GI50,HT29 colon,340 nM
same,TGI,HT29 colon,1190 nM
same,GI50,SNB-19 CNS,1700 nM
same,TGI,SNB-19 CNS,3150 nM
same,GI50,MDA-MB-231 breast,1280 nM
same,TGI,MDA-MB-231 breast,2600 nM
same,GI50,NCI-H460 lung,1450 nM
same,TGI,NCI-H460 lung,2970 nM
same,GI50,IGROV1 ovarian,1940 nM
same,TGI,IGROV1 ovarian,4260 nM
same,GI50,HL-60(TB) leukemia,1840 nM
